The text below walks through data of US10568947B2, “Treatment of cancer using a CLL-1 chimeric antigen receptor” (Novartis AG, priority 2014, dated 2020).

Entries after “also recorded” stand apart in the source; their conditions may differ. Some results are limits rather than exact numbers.

The test system of one data set is NALM6-luc tumors. Put plainly: NALM6-luc tumor growth with daily RAD001 dosing. Format: in vivo, NSG mice. Particulars: daily oral RAD001 alone, 0.3, 1, 3, 10 mg/kg. The method, then:
The NALM6 human acute lymphoblastic leukemia (ALL) cell line was developed from the peripheral blood of a patient with relapsed ALL. The cells were then tagged with firefly luciferase. These suspension cells grow in RPMI supplemented with 10% heat inactivated fetal bovine serum.
6 week old NSG (NOD.Cg-Prkdc^scidIl2rg^tm1Wjl/SzJ) mice were received from the Jackson Laboratory (stock number 005557).
(§1) NALM6-luc cells were grown and expanded in vitro in RPMI supplemented with 10% heat inactivated fetal bovine serum. The cells were then transferred to a 15 ml conical tube and washed twice with cold sterile PBS. NALM6-luc cells were then counted and resuspended at a concentration of 10×10^6 cells per milliliter of PBS. The cells were placed on ice and immediately (within one hour) implanted in the mice. NALM6-luc cells were injected intravenously via the tail vein in a 100 μl volume, for a total of 1×10^6 cells per mouse.
(§2) A concentrated micro-emulsion of 50 mg equal to 1 mg RAD001 was formulated and then resuspended in D5W (dextrose 5% in water) at the time of dosing. Mice were orally dosed daily (via oral gavage) with 200 μl of the desired doses of RAD001.

The nature of data set [1]: in vivo proliferation of huCAR19 CAR T cells with RAD001. The note with it: NALM6-luc NSG mice, daily oral RAD001, lowest doses (0.003 mg/kg). The method, then: as §1
Mice were administered 5×10^6 CAR T cells 7 days after tumor implantation. Cells were partially thawed in a 37 degree Celsius water bath and then completely thawed by the addition of 1 ml of cold sterile PBS to the tube containing the cells. The thawed cells were transferred to a 15 ml falcon tube and adjusted to a final volume of 10 mls with PBS. The cells were washed twice at 1000 rpm for 10 minutes each time and then counted on a hemocytometer. T cells were then resuspended at a concentration of 50×10^6 CAR T cells per ml of cold PBS and kept on ice until the mice were dosed. […]
Based on these doses, huCAR19 CAR T cells were dosed with and without RAD001 to determine the proliferative ability of these cells. […] Mice were monitored via FACS for T cell expansion.

The nature of data set [2]: RAD001 pharmacokinetics in blood of tumor bearing mice. The format is in vivo, NSG mice. The method, then: as §2
Mice were dosed daily with RAD001 starting 7 days post tumor implantation. Dosing groups were as follows: 0.3 mg/kg, 1 mg/kg, 3 mg/kg, and 10 mg/kg. Mice were bled on days 0 and 14 following the first and last dose of RAD001, at the following time points for PK analysis: 15 minutes, 30 minutes, 1 hour, 2 hours, 4 hours, 8 hours, 12 hours, and 24 hours.

The next data set deals with Nalm-6. Put plainly: huCART19 proliferation in co-culture with RAD001. Format: cell-based, human. The note with it: 4 day co-culture with Nalm-6; 0.0032 and 0.016 nM RAD001. The text has this: A humanized, anti-human CD19 CAR (huCART19) lentiviral transfer vector was used to produce the genomic material packaged into VSVg pseudotyped lentiviral particles. The amino acid and nucleotide sequence of the humanized anti-human CD19 CAR (huCART19) is CAR 1, ID 104875 described in PCT publication, WO2014/153270, filed Mar. 15, 2014, and is designated SEQ ID NOs. 85 and 31 therein.
Lentiviral transfer vector DNA is mixed with the three packaging components VSVg env, gag/pol and rev in combination with lipofectamine reagent to transfect Lenti-X 293T cells. Medium is changed after 24 h and 30 h thereafter, the virus-containing media is collected, filtered and stored at −80° C. CARTs are generated by transduction of fresh or frozen naïve T cells obtained by negative magnetic selection of healthy donor blood or leukopak. […] The percentage of cells transduced (expressing the CARs on the cell surface) and the level of CAR expression (relative fluorescence intensity, Geo Mean) are determined by flow cytometric analysis between days 7 and 9. […]
To evaluate the functionality of CARTs, the T cells are thawed and counted, and viability is assessed by Cellometer. […]
For measuring the proliferation of CARTs, T cells are cultured with target cells at a ratio of 1:1. […] The number of T cells is assessed by flow cytometry using counting beads as reference.

The test system of a further data set is primary AML blasts. The data set can be described thus: chemotherapy followed by CLL1-CART cells in primary AML xenografts. The format is in vivo, NSG-S mice. The note with it: two weeks after cytarabine 60 mg/kg i.p. daily days 35-39.

Description for primary AML blasts: NSG mice that are additionally transgenic for stem cell factor, GM-CSF and IL-3 (NSG-S) were injected with primary AML blasts (3×10^6 via tail vain injection, day 0). After 4-6 weeks, peripheral blood (PB) was collected to confirm engraftment, which was defined as the presence of >1% circulating leukemic cells (live human CD45dim cells). AML xenografts were then treated with cytarabine (Ara-C, 60 mg/kg by intra-peritoneal injection, daily between days 35-39). Peripheral blood counts were monitored and then these xenografts were randomized to receive CLL1 directed CART cells or control untransduced T cells (1×10^5 I.V.) on day 55. Following that, serial retro-orbital bleedings were performed and absolute leukemic blast count was calculated as a measure of disease burden and the xenografts were followed up for survival.

For the molecule `CO[C@H]1C[C@@H]2CC[C@@H](C)[C@@](O)(O2)C(=O)C(=O)N2CCCC[C@H]2C(=O)O[C@H]([C@H](C)C[C@@H]2CC[C@@H](OCCO)[C@H](OC)C2)CC(=O)[C@H](C)/C=C(\C)[C@@H](O)[C@@H](OC)C(=O)[C@H](C)C[C@H](C)/C=C/C=C/C=C/1C` [RAD001, (1R,9S,12S,15R,16E,18R,19R,21R,23S,24E,26E,28E,30S,32S,35R)-1,18-dihydroxy-12-{(1R)-2-[(1S,3R,4R)-4-(2-hydroxyethoxy)-3-methoxycyclohexyl]-1-methylethyl}-19,30-dimethoxy-15,17,21,23,29,35-hexamethyl-11,36-dioxa-4-aza-tricyclo[30.3.1.04,9]hexatriaconta-16,24,26,28-tetraene-2,3,10,14,20-pentaone], in the data set with NALM6-luc tumors, the “growth of NALM6-luc tumors” value is given as “did not have an impact”. In addition, the “proliferation of huCAR19 CAR T cells in vivo” value in data set [1] is “enhanced proliferation; also recorded: enhancement in CAR T cell proliferation”. The “concentration of RAD001 (blood)” value in data set [2] (24 hours after the final dose) is “above 10 nM”. Besides, in data set [2] (NSG, mouse, blood, oral, 24 hours after dosing, lowest dose 0.3 mg/kg, day 0 and day 14, read-out: RAD001 concentrations in the blood), the concentration at 24 h is over 10 nM. Besides, the “stability in the blood of tumor bearing mice” value in data set [2] (daily oral dosing, day 0 and day 14 PK) is recorded as “fairly stable”. Moreover, in the data set with Nalm-6, the “proliferation of huCART19 with RAD001 versus without” value is recorded as “proliferation was higher than observed without the addition of RAD001”.

Consider `Nc1ccn([C@@H]2O[C@H](CO)[C@@H](O)[C@@H]2O)c(=O)n1` [cytarabine], for which the “mean fluorescence intensity (MFI) of CLL1 in leukemic cells (live huCD45dim)” value with primary AML blasts is recorded as “significant increase”.
